Test results reported in patent EP3636255A1 (priority 2018, dated 2020).
Like-named read-outs stand apart in the source and are kept apart here.

Key:
[1] = test system: Vesicular Stomatitis Virus (VSV); type: cell-based
anthrax toxin = type: cell-based, human; settings: RPE1 cells, 1 µM overnight
[2] = test system: CerS3 cells lacking the indicated genes; assay: Yeast growth assay of CerS3 cells lacking genes identified as hypersensitive by SATAY; settings: 2.5 µM; 48 h at 30°C
yeast cells = assay: Yeast growth assay (ten-fold serial dilution spotting) of WT yeast with empty vector or expressing mammalian ceramide synthases; settings: 48 h at 30°C

SMILES | toxicity (cell number by DAPI nuclei count) (HeLaMZ cells; 0.2-2 µM) | inhibition of viral infection, concentration dependence [1] | viral infection (GFP-positive cells) [1] | reduction of viral infectivity ([1]; 1 µM) | cellular toxicity (RPE1 cells) | LF activity (anthrax toxin; 500 ng/ml PA83 and 50 ng/ml LF) | PA processing (PA83 to PA63, heptamer formation) (anthrax toxin; 500 ng/ml PA83 and 50 ng/ml LF) | MEK1(N) cleavage (anthrax toxin; control cleaved within 90 to 120 min) | toxicity (cell count by DAPI-based nuclei count) (HeLaMZ cells) | toxicity (cell number by DAPI nuclei count) (HeLaMZ cells; at 1µM) | sensitivity of the mutants (colony size and density) [2] | sensitivity (colony size and density) (yeast cells; WT+CerS1, 5 to 20 µM) | sensitivity (colony size and density) (yeast cells; WT+CerS2, 5 to 20 µM) | sensitivity (colony size and density) (yeast cells; WT+CerS3, already at 5 µM) | sensitivity (colony size and density) (yeast cells; WT+CerS4, 5 to 20 µM) | sensitivity (colony size and density) (yeast cells; WT+CerS5, 10 µM) | sensitivity (colony size and density) (yeast cells; WT+CerS5, 20 µM) | sensitivity (colony size and density) (yeast cells; WT+CerS6, 10 µM) | sensitivity (colony size and density) (yeast cells; WT+CerS6, 20 µM) | sensitivity (colony size and density) (yeast cells; WT+EV (empty vector), 5 to 20 µM)
C#CCCCCCCCCCCCCCC(O)C(C)N (centres unmarked) [Formula 2, 2-aminooctadec-17-yn-3-ol] | very little toxicity |  |  |  |  |  |  |  |  |  |  |  |  |  |  |  |  |  |  | 
CCCCCCCCCCCCCCCC(O)C(C)N (centres unmarked) [Formula 1, 2-aminooctadecan-3-ol] |  | Concentration dependent inhibition | reduced viral infection | substantial | not toxic | prevented | unaffected | stabilized | not toxic | starts to show some toxicity | slightly more sensitive | insensitive | insensitive | highly sensitive | insensitive | mildly sensitive | highly sensitive | mildly sensitive | highly sensitive | insensitive
